# US20090253796A1, “METHOD FOR TREATING VASCULAR DISEASE” (Research Foundation Itsuu Laboratory, priority 2002, published 2009)
# Assays:
# [1] = tested on: KLF5/BTEB2+/- mice; test: Cuff injury in KLF5/BTEB2+/- knockout mice; assay type: in vivo; conditions: in which granulation was otherwise suppressed
# Excerpt: It is known that various kinds of growth factors are induced in blood vessel walls against affections in the cardiovascular system remodeling. By using mice (KLF5/BTEB2+/−mice) with hetero-knockout of Zn finger type transcription factor KLF5/BTEB2, which is strongly expressed in neointima of injured blood vessels among such growth factors, studies were made to know whether or not the effect of proliferation of neointima was induced by the retinoid action.
# [2] = tested on: angiotensin II hypercardia model mice; test: Angiotensin II hypercardia model; assay type: in vivo
# Protocol: Mice were administered with angiotensin II at a dose of 3.2 mg/kg/day for two weeks by using an osmotic pressure pump to prepare hypercardia models. After 2 weeks, hypercardia, stromal fibrosing, and fibrosing around coronary artery were observed.
# [3] = tested on: Rat aorta smooth muscle cells; test: BrdU uptake (proliferation) of smooth muscle cells; assay type: cell-based; conditions: for ratio of uptake of BrdU relative to the uptake without Am80: Smooth muscle cell, 10% fetal bovine serum, BrdU added after 24 hours, measured for 4 hours
# Protocol: (§1) Rat aorta smooth muscle cells and human umbilical artery endothelial cells were cultured in the presence of 10% fetal bovine serum, and added with Am80 at various concentrations. After 24 hours, BrdU was added to the culture medium, and BrdU uptake ability was measured for 4 hours. The ratios of uptake of BrdU at the various concentrations relative to the uptake obtained without addition of Am80 are summarized in the table. The BrdU uptake ability represents DNA synthesis ability in proportion to the proliferation.
# [4] = tested on: cuff-injured femoral arteries of wild-type mice (129SVxC57BL6); test: Cuff-injured femoral artery model; assay type: in vivo; conditions: for neointima of injured blood vessel (in words) / granulation around the cuff (in words): 5 mg/kg/day
# Protocol: Polyethylene tube cuffs were indwelled in femoral arteries of wild-type mice (129SVxC57BL6) to injure the arteries. Am80 was orally administered at a dose of 5 mg/kg/day, and after 5 weeks, appearance and cross sections of the injured sites were evaluated. Areas of neointima of the femoral artery covered with the tube cuff and granulation tissue around the cuff were measured.
# [5] = tested on: rabbit common iliac artery; test: Restenosis after indwelling of stent in common iliac artery; assay type: in vivo; conditions: rabbits, oral 1 mg/kg every day, 4 weeks after indwelling of the stent, p<0.05 vs control group
# Protocol: Internal diameter of a rabbit common iliac artery was measured by intravascular ultrasound imaging (IVUS), and then a balloon was expanded to a size of 1 to 1.1 times of the internal diameter and a stent was indwelled. After the indwelling, the internal diameter was measured again by IVUS to confirm that the internal diameter changed 1 to 1.1 times and the stent was precisely indwelled. For each of the control group and Am80-administrated group, 6 rabbits were used. The rabbits were orally administered with Am80 at a dose of 1 mg/kg every day, and 4 weeks after the indwelling of the stent, the arteries at the stent-indwelled sites were collected and fixed to examine tissue images. Serial sections were prepared for the proximal, intermediary, and distal positions within the stent, and areas of tunica media and intima were measured.
# [6] = tested on: human umbilical artery endothelial cells; test: BrdU uptake (proliferation) of endothelial cells; assay type: cell-based; conditions: for ratio of uptake of BrdU relative to the uptake without Am80: Endothelial cell, 10% fetal bovine serum, BrdU added after 24 hours, measured for 4 hours
# Protocol: as §1
Compound,granulation (in words) [1],"onsets of hypercardia, stromal fibrosing, and fibrosing around coronary artery ([2]; angiotensin II 3.2 mg/kg/day plus 5 mg/kg/day compound for two weeks)","Heart weight/body weight ([2]; angiotensin II 3.2 mg/kg/day plus Am80 5 mg/kg/day for two weeks, control mice 5.65 ± 0.195 mg/g)",ratio of uptake of BrdU relative to the uptake without Am80 ([3]; 0.3 μM),ratio of uptake of BrdU relative to the uptake without Am80 ([3]; 1 μM),ratio of uptake of BrdU relative to the uptake without Am80 ([3]; 3 μM),ratio of uptake of BrdU relative to the uptake without Am80 ([3]; 10 μM),antiproliferative action on vascular smooth muscle cells (in words) ([3]; summary statement),"neointima of injured blood vessel (in words) ([4]; mice, oral 5 mg/kg/day, after 5 weeks, compared with control mice)","neointima of injured blood vessel (in words) ([4]; mice, oral 5 mg/kg/day, after 5 weeks, compared with control mice; listed as 4-[5,6,7,8-tetrahydro-5,5,8,8-tetramethyl-2-naphthalenyl)carbamoyl]benzoic acid)","granulation around the cuff (in words) ([4]; mice, oral 5 mg/kg/day, after 5 weeks, compared with mice not administered)","granulation around the cuff (in words) ([4]; mice, oral 5 mg/kg/day, after 5 weeks, compared with mice not administered; listed as 4-[5,6,7,8-tetrahydro-5,5,8,8-tetramethyl-2-naphthalenyl)carbamoyl]benzoic acid)","Neointima area ([4]; mice, oral 5 mg/kg/day, after 5 weeks, control mice 0.0117 mm^2)","Granulation tissue area ([4]; mice, oral 5 mg/kg/day, after 5 weeks, control mice 1.08 mm^2)",ratio of intima/tunica media [5],ratio of uptake of BrdU relative to the uptake without Am80 ([6]; 0.3 μM),ratio of uptake of BrdU relative to the uptake without Am80 ([6]; 1 μM),ratio of uptake of BrdU relative to the uptake without Am80 ([6]; 3 μM),ratio of uptake of BrdU relative to the uptake without Am80 ([6]; 10 μM),antiproliferative action on vascular endothelial cells (in words) ([6]; summary statement)
"CN1c2cc3c(cc2N=C(c2ccc(C(=O)O)cc2)c2ccccc21)C(C)(C)CCC3(C)C [LE135, 4-(5H-7,8,9,10-tetra-hydro-5,7,7,10,10-pentamethylbenzo[e]naphtho[2,3-b][1,4]-diazepin-13-yl)benzoic acid]",strong granulation was observed,,,,,,,,,,,,,,,,,,,
CC1(C)CCC(C)(C)c2cc(NC(=O)c3ccc(C(=O)O)cc3)ccc21 [Am80],,markedly suppressed,4.78 ± 0.170 mg/g,95.5,78.5,74.4,68.8,substantially had antiproliferative action,significantly decreased,superior antiproliferative action on neointima,markedly suppressed,markedly suppressed granulation,0.0019 mm^2,0.44 mm^2,significantly decreased,95.1,109.4,104.0,102.1,substantially no antiproliferative action
